In patent EP1001761B1, “USE OF CHOL[…] TREATING ATTENTION DEFICIT DISORDERS” (priority 1997, dated 1999):
Counter-ions that a name gives are not always drawn.

What was measured:
solubility in water = format: physicochemical; settings: room temperature
Procedure: Galantamine and its acid addition salts form crystals. […] If necessary, pharmaceutically-acceptable suspension aids may be employed. Typically, such a suspension will be employed at a concentration of 0.1-50 mg/ml, such as 1-50 mg/ml, more commonly 5-40 mg/ml, for example, 5-30 mg/ml or 10-40 mg/ml, such as 10-30 mg/ml, especially 20-30 mg/ml of galantamine.

patients with ADD = test: treatment of two ADD patients, measured by ANT (Amsterdam Neuropsychological Tests), reaction times for different tasks; format: in vivo; settings: for After: mean / After: miss (Missed task) / After: Fa (Failed attempt): after treatment
Text: The protocol in this case is first a baseline testing before medication and retesting after 2 days on medication and then after a week repeated testing. Ecological scales were also used before and are now being evaluated after one week after two weeks etc. for a treatment of one month duration.

SMILES | solubility in water (solubility in water) | After: mean (patients with ADD; Patient A, task Baseline) | After: mean (patients with ADD; Patient A, task Focused Att.) | After: miss (Missed task) (patients with ADD; Patient A, task Focused Att.) | After: Fa (Failed attempt) (patients with ADD; Patient A, task GoNoGo) | After: mean (patients with ADD; Patient A, task GoNoGo) | After: miss (Missed task) (patients with ADD; Patient A, task GoNoGo) | After: Fa (Failed attempt) (patients with ADD; Patient A, task Sustained Att.) | After: mean (patients with ADD; Patient A, task Sustained Att.) | After: miss (Missed task) (patients with ADD; Patient A, task Sustained Att.) | After: mean (patients with ADD; Patient B, task Baseline) | After: mean (patients with ADD; Patient B, task Focused Att.) | After: miss (Missed task) (patients with ADD; Patient B, task Focused Att.) | After: Fa (Failed attempt) (patients with ADD; Patient B, task GoNoGo) | After: mean (patients with ADD; Patient B, task GoNoGo) | After: miss (Missed task) (patients with ADD; Patient B, task GoNoGo) | After: Fa (Failed attempt) (patients with ADD; Patient B, task Sustained Att.) | After: mean (patients with ADD; Patient B, task Sustained Att.) | After: miss (Missed task) (patients with ADD; Patient B, task Sustained Att.) | improvement in attention (reduction in time to complete certain tasks and with fewer errors), normalized data, error analysis (patients with ADD; two patients, 2.5 mg 3 times a day)
COc1ccc2c3c1O[C@H]1C[C@@H](O)C=C[C@@]31CCN(C)C2 [galantamine] | only sparingly soluble | 727 ms | 1352 ms | 0 | 2 | 655 ms | 1 | 6 | 1222 ms | 4 | 780 ms | 1166 ms | 3 | 3 | 766 ms | 3 | 50 | 1152 ms | 20 | –
COc1ccc2c3c1O[C@H]1C[C@@H](O)C=C[C@@]31CCN(C)C2 [galantamine hydrobromide] | – | – | – | – | – | – | – | – | – | – | – | – | – | – | – | – | – | – | – | over 2.5 standard deviations
